Tests used:
[1] = molecular target: T1, hMATE2 (Homo sapiens, UniProt Q86VL8); test: Cis-inhibition assay, 3H-MPP+ uptake in hMATE2-CHO-K1 cells; type: cell-based; settings: pinocembrin, pH 8.5
T1 construct: host or cells: CHO-K1
Description: Next, the effects of pinocembrin on the transport function of renal drug transporters, including hOAT1, hOAT3, hOCT1, hOCT2, hMATE1, and hMATE2, were determined.
A cell monolayer comprising hOAT1-MDCK, hOAT3-MDCK, hOCT1-CHO-K1, hOCT2-CHO-K1, hMATE1-CHO-K1, hMATE2-CHO-K1, and mock cells were utilized for the uptake experiments. The cells were washed three times with a buffer containing (in mM) 140 NaCl, 5 KCl, 0.4 MgSO4, 0.5 MgCl2, 1 CaCl2, 0.3 Na2HPO4, 0.4 KH2PO4, 6 D-glucose, and 4 NaHCO3 at pH 7.4 and incubated at 37 °C for 15 min. After incubation, the hOAT1-MDCK and hOAT3-MDCK cells were incubated for 10 min with ^3H-PAH and ^3H-estrone sulfate, a substrate of hOAT1 and hOAT3, respectively. The hOCT1-CHO-K1 and hOCT2-CHO-K1 cells were incubated with ^3H-MPP^+, a substrate of OCT1 and OCT2, for five minutes. The functions of MATE1 and MATE2 were determined by incubating the hMATE1-CHO-K1 and hMATE2-CHO-K1 cells with a buffer containing ^3H-MPP^+, a substrate of MATE1 and MATE2, at pH 8.5 for five minutes. The cells were washed three times with an ice-cold buffer to stop the transport function. The cells were lyzed with 0.4 N NaOH for at least four hours. The samples were collected and transferred to vials containing a liquid scintillation cocktail to measure radioactivity by a β-counter (Packard BioScience, Wellesley, MA, USA). […]

[2] = molecular target: T2, hOAT3 (Homo sapiens, UniProt Q8TCC7); test: hOAT3-mediated 6-CF uptake in hOAT3-MDCK cells (inhibitory potency and kinetics); type: cell-based
T2 construct: host or cells: MDCK
T2 sequence (Q8TCC7 1-542): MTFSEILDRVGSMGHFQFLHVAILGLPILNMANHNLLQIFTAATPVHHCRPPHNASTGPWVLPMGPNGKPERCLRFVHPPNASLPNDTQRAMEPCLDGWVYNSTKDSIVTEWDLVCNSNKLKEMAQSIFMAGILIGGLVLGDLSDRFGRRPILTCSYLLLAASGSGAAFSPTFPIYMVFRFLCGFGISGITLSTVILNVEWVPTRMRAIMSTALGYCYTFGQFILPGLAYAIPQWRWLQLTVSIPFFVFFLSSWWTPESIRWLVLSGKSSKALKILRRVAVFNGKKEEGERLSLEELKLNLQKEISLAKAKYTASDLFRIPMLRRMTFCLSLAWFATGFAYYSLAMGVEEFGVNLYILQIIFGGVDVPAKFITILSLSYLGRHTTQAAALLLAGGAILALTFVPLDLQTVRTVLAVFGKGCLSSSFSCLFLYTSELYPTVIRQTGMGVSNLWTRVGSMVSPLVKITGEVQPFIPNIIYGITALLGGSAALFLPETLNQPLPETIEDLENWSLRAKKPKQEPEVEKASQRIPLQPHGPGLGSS
Description: To determine the inhibitory potency of pinocembrin on the hOAT1 and hOAT3 function, the IC50 of pinocembrin on the hOAT1- and hOAT3-mediated uptake of 6-carboxyfluorescein (6-CF), a fluorescent substrate of hOAT1 and hOAT3, was determined. […] Next, the inhibitory mechanism of pinocembrin was determined using a kinetic study.
The hOAT1-MDCK and hOAT3-MDCK cell monolayers were incubated at 37 °C with an uptake buffer containing 6-CF (10 µM), a fluorescent substrate of hOAT1 and hOAT3 [12], and pinocembrin (0–50 µM) for 10 min. Uptake was terminated by removing the uptake solution and washing four times with a cold buffer. The cell monolayers were lysed with 0.4 N NaOH for 30 min. The samples were transferred to 96-black well plates to measure the fluorescence intensity using a fluorescent plate reader (EnVision XCite 2105 Multimode Plate Reader, Packard BioScience, Wellesley, MA, USA) at excitation and emission wavelengths of 490 and 510, respectively. The IC50 of pinocembrin on hOAT1- and hOAT3-mediated 6-CF uptake was calculated in GraphPad Prism using sigmoidal concentration–response analysis using the equation Y = 100/(IC50/X)^HillSlope (X is the concentration, while Y is the normalized response). In addition, the estimated inhibitory constant (Ki) was calculated using the Cheng–Prusoff equation.
The hOAT1-MDCK and hOAT3-MDCK cell monolayers were incubated with 6-CF at increasing concentrations (0 to 100 µM) and in the absence or presence of 5 µM pinocembrin for 10 min. The kinetic parameters of 6-CF transport by hOAT1 and hOAT3 in the presence of pinocembrin were determined using nonlinear regression analysis to fit the Michaelis–Menten kinetic equation: V=Vmax[S]/Km+[S] where V is the rate of 6-CF transport, Vmax is the maximum rate of 6-CF transport, Km is the 6-CF concentration that results in half the maximum transport (Michaelis–Menten constant), and [S] is the concentration of 6-CF in the transport reaction.

[3] = system: hOAT1-MDCK cells; test: Cell viability assay (MTT) in hOAT1-MDCK cells; type: cell-based, canine
Description: The hOAT1-MDCK cells and hOAT3-MDCK cells were treated with 1, 10, and 50 μM pinocembrin for 24 h, followed by a measurement of ^3H-PAH and ^3H-estrone sulfate cellular accumulation. […] The inhibitory effect of pinocembrin occurred in a concentration-dependent manner.
We determined whether the inhibitory effect of pinocembrin on hOAT1 and hOAT3. We studied whether pinocembrin could reduce the renal toxicity of tenofovir, a substrate of hOAT1 and hOAT3 known for inducing renal tubular dysfunction.
The confluent cells in 96-well plates were treated with pinocembrin for 48 h at 37 °C. After that, the cells were incubated with 0.5 mg/mL MTT solution for four hours. The MTT solution was removed, and DMSO (100 µL) was added to dissolve the crystal formazan. The formazan content was detected at a wavelength of 570 nm using a microplate reader. Cell viability was reported as a percentage of the vehicle-treated cells.

[4] = system: OATP2B1; parameters: method as in PMID 28745105; settings: transfected renal cells; read-out: IC50 on OATP2B1-mediated rosuvastatin uptake; cited from earlier work
[5] = system: OATP1A2; parameters: method as in PMID 28745105; settings: transfected renal cells; cited from earlier work
[6] = system: CYP1A2; settings: cited from earlier work

T1 sequence (Q86VL8 whole entry): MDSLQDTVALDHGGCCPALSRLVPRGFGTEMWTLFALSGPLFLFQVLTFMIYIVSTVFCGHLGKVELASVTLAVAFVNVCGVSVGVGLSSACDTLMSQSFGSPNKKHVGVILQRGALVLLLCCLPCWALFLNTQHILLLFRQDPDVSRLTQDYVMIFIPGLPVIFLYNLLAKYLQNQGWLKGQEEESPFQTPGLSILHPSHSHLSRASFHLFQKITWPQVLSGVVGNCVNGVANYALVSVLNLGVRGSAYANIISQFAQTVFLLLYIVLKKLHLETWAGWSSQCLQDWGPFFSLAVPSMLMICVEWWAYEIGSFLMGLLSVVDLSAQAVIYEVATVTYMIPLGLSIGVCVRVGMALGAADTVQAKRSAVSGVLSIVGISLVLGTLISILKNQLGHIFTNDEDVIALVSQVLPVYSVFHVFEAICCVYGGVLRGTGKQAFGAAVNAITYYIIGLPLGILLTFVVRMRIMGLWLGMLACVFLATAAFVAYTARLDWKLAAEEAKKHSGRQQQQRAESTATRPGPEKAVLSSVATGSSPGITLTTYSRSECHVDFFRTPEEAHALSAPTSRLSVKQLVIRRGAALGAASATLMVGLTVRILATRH

hMATE2-mediated uptake of 3H-MPP+ [1]: did not alter | Vmax of hOAT3-mediated 6-CF uptake, With Pinocembrin ([2]; 5 μM pinocembrin, 6-CF up to 100 μM, hOAT3-MDCK cells): 11.32 ± 2.33 nmol/min/cm^2 | IC50 ([2]; hOAT3-MDCK cells, 6-CF 10 µM, mean ± S.D., three experiments): 2.38 ± 0.98 µM | Ki ([2]; hOAT3-MDCK cells, estimated with the Cheng–Prusoff equation): 1.3 ± 0.24 µM | inhibitory mechanism on hOAT3 transport function ([2]; kinetic study, 5 μM pinocembrin: Km increased, Vmax unchanged): competitively
SMILES: O=C1C[C@@H](c2ccccc2)Oc2cc(O)cc(O)c21 [pinocembrin]
cell viability ([3]; pinocembrin 1, 10 and 50 μM, compared to vehicle-treated cells): did not affect cell viability | cell viability on co-treatment with tenofovir ([3]; tenofovir plus pinocembrin, 48 h, compared with tenofovir-treated cells alone): considerably increased cell viability | IC50 [4]: 8.9 µM | effect on OATP1A2 function [5]: weakly inhibits | mechanism of CYP1A2 inhibition [6]: competitive | effect on the activity of CYP1A2 ([6]; concentrations of 1–5 µM): shows an inhibitory effect

Reference: PMC11768629, “Potential Interaction of Pinocembrin with Drug Transporters and Hepatic Drug-Metabolizing Enzymes” (Pharmaceuticals, 2025)
